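96-well plates; 48 h exposure; 5 concentrations. Endpoints by linear interpolation between flanking doses. Not reached: highest tested concentration assigned. Here, GI50 denotes the concentration required for 50% inhibition of growth.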 Active and inactive are the calls of the source. Cut-off read from the data, not from the text of the source: active = GI50 up to about 1.1 µM and inactive = higher.
Key:
Test in all cases: NCI anticancer screen, dose series, 48 h
A549 = test system: A549
CAKI-1 = test system: CAKI-1
HCT-116 = test system: HCT-116
HCT-15 = test system: HCT-15
HOP-62 = test system: HOP-62
NCI-H23 = test system: NCI-H23
NCI-H460 = test system: NCI-H460
OVCAR-3 = test system: OVCAR-3
OVCAR-4 = test system: OVCAR-4
OVCAR-5 = test system: OVCAR-5
SK-OV-3 = test system: SK-OV-3
SN12C = test system: SN12C
SW-620 = test system: SW-620
TK-10 = test system: TK-10
U-251 = test system: U-251
UACC-257 = test system: UACC-257
UO-31 = test system: UO-31

| SMILES | GI50 (A549) | GI50 (CAKI-1) | GI50 (HCT-116) | GI50 (HCT-15) [µM] | GI50 (HOP-62) | GI50 (NCI-H23) | GI50 (NCI-H460) | GI50 (OVCAR-3) | GI50 (OVCAR-4) | GI50 (OVCAR-5) | GI50 (SK-OV-3) | GI50 (SN12C) | GI50 (SW-620) | GI50 (TK-10) | GI50 (U-251) | GI50 (UACC-257) | GI50 (UO-31) |
| --- | --- | --- | --- | --- | --- | --- | --- | --- | --- | --- | --- | --- | --- | --- | --- | --- | --- |
| O=Cc1c(O)c(C(=O)Nc2ccc3[nH]c(=O)[nH]c3c2)cc2ccccc12 | > 100 µM (inactive) | > 100 µM (inactive) | > 100 µM (inactive) | > 100 | > 100 µM (inactive) | > 100 µM (inactive) | > 100 µM (inactive) | > 100 µM (inactive) | > 100 µM (inactive) | > 100 µM (inactive) | > 100 µM (inactive) | > 100 µM (inactive) | > 100 µM (inactive) | > 100 µM (inactive) | > 100 µM (inactive) | > 100 µM (inactive) | > 100 µM (inactive) |
| C/C(=C\CBr)CCC(Br)C(C)(C)Cl (centres undefined) | > 100 µM (inactive) | > 100 µM (inactive) | > 100 µM (inactive) | > 100 | > 100 µM (inactive) | > 100 µM (inactive) | > 100 µM (inactive) | – | > 100 µM (inactive) | > 100 µM (inactive) | > 100 µM (inactive) | > 100 µM (inactive) | > 100 µM (inactive) | > 100 µM (inactive) | > 100 µM (inactive) | > 100 µM (inactive) | > 100 µM (inactive) |
| CCNCCNC(=O)c1ccc(I)cc1 | > 100 µM (inactive) | > 100 µM (inactive) | – | > 100 | – | > 100 µM (inactive) | > 100 µM (inactive) | > 100 µM (inactive) | > 100 µM (inactive) | > 100 µM (inactive) | > 100 µM (inactive) | > 100 µM (inactive) | > 100 µM (inactive) | > 100 µM (inactive) | > 100 µM (inactive) | – | 58.6 µM (inactive) |
| COc1cccc(/C=N\NC(=O)C(C)SC(C)C(=O)N/N=C/c2cccc(OC)c2)c1 (centres undefined) | 14.6 µM (inactive) | 34.3 µM (inactive) | 18.4 µM (inactive) | > 100 | 16 µM (inactive) | 23.8 µM (inactive) | 14.9 µM (inactive) | 20.7 µM (inactive) | 16.8 µM (inactive) | 53.8 µM (inactive) | 18.1 µM (inactive) | 19.6 µM (inactive) | 57.8 µM (inactive) | 19.1 µM (inactive) | 18 µM (inactive) | 59.3 µM (inactive) | 41 µM (inactive) |
| CCOC(=O)C(=O)Nc1c(C)cccc1C(C)(C)C | – | > 100 µM (inactive) | > 100 µM (inactive) | > 100 | > 100 µM (inactive) | > 100 µM (inactive) | > 100 µM (inactive) | > 100 µM (inactive) | 73.3 µM (inactive) | > 100 µM (inactive) | > 100 µM (inactive) | > 100 µM (inactive) | > 100 µM (inactive) | > 100 µM (inactive) | > 100 µM (inactive) | > 100 µM (inactive) | > 100 µM (inactive) |
| COc1cc(OC(C)=O)cc2c(OC(C)=O)ccc(OC(C)=O)c12 | > 100 µM (inactive) | > 100 µM (inactive) | > 100 µM (inactive) | > 100 | > 100 µM (inactive) | > 100 µM (inactive) | > 100 µM (inactive) | > 100 µM (inactive) | 73.6 µM (inactive) | > 100 µM (inactive) | – | > 100 µM (inactive) | > 100 µM (inactive) | > 100 µM (inactive) | > 100 µM (inactive) | > 100 µM (inactive) | > 100 µM (inactive) |
| O=C1COc2cc(NC(=S)Nc3ccccc3)ccc2N1 | > 100 µM (inactive) | > 100 µM (inactive) | > 100 µM (inactive) | > 100 | > 100 µM (inactive) | > 100 µM (inactive) | > 100 µM (inactive) | > 100 µM (inactive) | > 100 µM (inactive) | > 100 µM (inactive) | > 100 µM (inactive) | > 100 µM (inactive) | > 100 µM (inactive) | > 100 µM (inactive) | > 100 µM (inactive) | > 100 µM (inactive) | > 100 µM (inactive) |
| O=C(c1ccc(Cl)cc1)c1ccc(OCCSCCCCCCCCCCSCCOc2ccc(C(=O)c3ccc(Cl)cc3)cc2)cc1 | > 100 µM (inactive) | > 100 µM (inactive) | – | > 100 | > 100 µM (inactive) | > 100 µM (inactive) | > 100 µM (inactive) | > 100 µM (inactive) | – | > 100 µM (inactive) | > 100 µM (inactive) | > 100 µM (inactive) | > 100 µM (inactive) | > 100 µM (inactive) | > 100 µM (inactive) | > 100 µM (inactive) | > 100 µM (inactive) |
| COc1ccc(-c2oc(/C=N/NC(N)=S)c([N+](=O)[O-])c2-c2ccc(OC)c(OC)c2)cc1OC | 35.6 µM (inactive) | 32.1 µM (inactive) | 19.2 µM (inactive) | 29.4 | 28 µM (inactive) | 32 µM (inactive) | – | 16.7 µM (inactive) | 21.7 µM (inactive) | 48.3 µM (inactive) | 21 µM (inactive) | 36 µM (inactive) | 33.1 µM (inactive) | 34 µM (inactive) | – | 31.8 µM (inactive) | – |
| COc1cc(C(=O)C/C(CCCC(=O)Nc2ccccc2[N+](=O)[O-])=N/NC(=O)c2cc3ccccc3cc2O)ccc1O | 54.5 µM (inactive) | > 68.9 µM (inactive) | 34.4 µM (inactive) | 20.2 | 94.8 µM (inactive) | 41.4 µM (inactive) | 40.6 µM (inactive) | 16.1 µM (inactive) | 38.3 µM (inactive) | 46.3 µM (inactive) | 49.7 µM (inactive) | 44 µM (inactive) | 46.5 µM (inactive) | 52.5 µM (inactive) | 52.1 µM (inactive) | 27.7 µM (inactive) | 13.9 µM (inactive) |
| CCCCn1c(-c2ccccc2)cs/c1=N\NC(=O)Cn1c(C)nc2ccccc21 | 81.1 µM (inactive) | 62.5 µM (inactive) | 97.3 µM (inactive) | 97.9 | > 100 µM (inactive) | 8.75 µM (inactive) | 76.7 µM (inactive) | 40.6 µM (inactive) | 6.12 µM (inactive) | > 100 µM (inactive) | > 100 µM (inactive) | 19.8 µM (inactive) | > 100 µM (inactive) | > 100 µM (inactive) | 96.2 µM (inactive) | 34.5 µM (inactive) | 55.6 µM (inactive) |
| CCOc1ccc2c(c1)[n+]([O-])c(-c1ccc([N+](=O)[O-])cc1)c(N)[n+]2[O-] | > 100 µM (inactive) | > 100 µM (inactive) | 62.2 µM (inactive) | – | > 100 µM (inactive) | > 100 µM (inactive) | > 100 µM (inactive) | > 100 µM (inactive) | > 100 µM (inactive) | > 100 µM (inactive) | > 100 µM (inactive) | > 100 µM (inactive) | > 100 µM (inactive) | – | > 100 µM (inactive) | > 100 µM (inactive) | 43.1 µM (inactive) |
| COC(=O)/C=C(/C(=O)OC)C1(C)c2cc(C(=O)OC)c(C(=O)OC)c(N)c2C(=N)N1c1ccccc1 (centres undefined) | 42 µM (inactive) | 21.4 µM (inactive) | 15.8 µM (inactive) | 31.8 | 86.7 µM (inactive) | 22.1 µM (inactive) | 39.5 µM (inactive) | 17.9 µM (inactive) | – | 41.4 µM (inactive) | 34 µM (inactive) | 19.6 µM (inactive) | – | 41.4 µM (inactive) | 20.1 µM (inactive) | > 10 µM (inactive) | 22.6 µM (inactive) |
| C=C(C)C12CC3CC(/C(=N/O)C(C1)/C3=N\O)[C@@]2(C)O (some centres undefined) | > 100 µM (inactive) | > 100 µM (inactive) | > 100 µM (inactive) | > 100 | > 100 µM (inactive) | > 100 µM (inactive) | > 100 µM (inactive) | > 100 µM (inactive) | – | > 100 µM (inactive) | > 100 µM (inactive) | > 100 µM (inactive) | > 100 µM (inactive) | > 100 µM (inactive) | > 100 µM (inactive) | > 100 µM (inactive) | > 100 µM (inactive) |
| CC(C)(C)OC(=O)NC1CCC[C@H]1O (some centres undefined) | > 100 µM (inactive) | > 100 µM (inactive) | > 100 µM (inactive) | – | > 100 µM (inactive) | > 100 µM (inactive) | > 100 µM (inactive) | > 100 µM (inactive) | > 100 µM (inactive) | > 100 µM (inactive) | > 100 µM (inactive) | > 100 µM (inactive) | > 100 µM (inactive) | > 100 µM (inactive) | > 100 µM (inactive) | > 100 µM (inactive) | > 100 µM (inactive) |
| COc1ccc2c3c(c(C(=O)c4ccccc4)oc13)CCC2 | > 100 µM (inactive) | > 100 µM (inactive) | > 100 µM (inactive) | > 100 | > 100 µM (inactive) | 20.8 µM (inactive) | > 100 µM (inactive) | > 100 µM (inactive) | > 100 µM (inactive) | – | > 100 µM (inactive) | > 100 µM (inactive) | > 100 µM (inactive) | > 100 µM (inactive) | > 100 µM (inactive) | > 100 µM (inactive) | – |
| CCOC(=O)c1cccc(=O)c(C(=O)OCC)c1 | 46.9 µM (inactive) | 77.3 µM (inactive) | 28.4 µM (inactive) | 40.3 | 33.3 µM (inactive) | 44 µM (inactive) | 80 µM (inactive) | 31.3 µM (inactive) | 48.1 µM (inactive) | > 100 µM (inactive) | > 100 µM (inactive) | – | 50.2 µM (inactive) | > 100 µM (inactive) | 32.4 µM (inactive) | 57.8 µM (inactive) | 29.4 µM (inactive) |

Reference: ChEMBL document CHEMBL1201862, “PubChem BioAssay data set” (2004)
